In patent US6900318B1, “1,4,5,6-tetrahydropyrimidine derivative as a vitronectin inhibitor” (Aventis Pharma Deutscland GmbH, priority 1999, dated 2005):

Tested on: thyroparathyroidectomized (TPTX) rats
Test: PTH-induced hypercalcemia in the TPTX rat model of bone resorption
Format: in vivo
Conditions: PTH treated TPTX male Sprague Dawley rats; perorally twice at 10 mg/kg (time 0 and 3 h after start of PTH infusion); serum at 6 hours
Excerpt: 9) Pharmacological Testing: PTH-Induced Hypercalcemia in the TPTX Rat Model of Bone Resorption
In this in vivo model a stimulation of bone resorption is induced in thyroparathyroidectomized (TPTX) rats by the infusion of parathyroid hormone (PTH). The changes in bone resorption are monitored by measuring the serum calcium concentration which is directly related to the extent of bone resorption.
Male Sprague Dawley rats (OFA-IFFA CREDO, France) weighting 150-200 g were thyroparathyroidectomized by the supplier. The rats were allowed free access to a standard commercial pelleted diet containing 7 g Ca/kg (UAR) and Eau de Volvic water. The success of thyroparathyroidectomy was tested by measuring serum calcium concentrations 8 days after operation in overnight fasted animals. Rats were considered as TPTX when the serum calcium level was <80 mg/l.
For treatment with PTH, rat PTH(1-34) (Bachem) was dissolved in 0.15 M sodium chloride solution containing 2% Cys-HCl and delivered via osmotic minipumps (ALZET 2001 D) at 200 pmol/kg/h. […]
Serum total calcium concentrations (=calcemia) were measured […] (Ciba-Corning) using a IEMS Labsystems microplate reader at 540 nm. The differences between the mean values of calcemia in the groups were analysed for variance and by Dunnett's test. The activity of the test compound was calculated as % effect according to the formula: [formula]

With `CCOC(=O)[C@H](CNC(=O)c1ccc(CCC(=O)NC2=NCCCN2)cc1)NS(=O)(=O)c1cccc2ccccc12.O=C(O)/C=C/C(=O)O` [compound of formula I, ethyl (2S)-2-(naphthalene-1-sulfonylamino)-3-(4-(2-(1,4,5,6-tetrahydropyrimidin-2-ylcarbamoyl)ethyl)benzoylamino)propionate hemifumarate] the “% effect on serum total calcium concentration (calcemia)” value was −45%.
